The results in this text go back to patent US20140315999A1, “USE OF PROLYL H[…] A RADIOPROTECTIVE DRUG FOR THE LOWER GASTROINTESTINAL TRACT” (priority 2011, published 2014).

One data set relates to HIF-2. Description: Western blot for HIF-2 in colonic crypts after DMOG injection. The format is in vivo, male C57Bl/6 mice. As to conditions: 8 mg DMOG intraperitoneally; 4-12 after DMOG administration. Here is the method: (§1) FIG. 1 depicts a Western blot for HIF-1, HIF-2, and β-actin in colonic crypts at the time points indicated after DMOG injection (8 mg.) Each lane represents a different animal.
(§2) In order to assess the kinetic effects of DMOG on the HIF-1 and HIF-2 protein levels, male C57Bl/6 mice were injected with 8 mg. of DMOG intraperitoneally and colonic crypts were harvested at various time points after injection (FIG. 1). A 8 mg dose results in the elevation of HIF1 and HIF2 proteins 4-12 after DMOG administration as determined by Western blot analysis.

In another data set the test system is HIF-1. Description: Western blot for HIF-1 in colonic crypts after DMOG injection. Type of data set: in vivo, male C57Bl/6 mice. To be noted: 8 mg DMOG intraperitoneally; 4-12 after DMOG administration. Here is the method: as §1, §2
For orientation: In western blotting, separated proteins are transferred to a membrane and probed.

The subject of the next data set is GI epithelia. Nature of the data set: FITC-dextran assay of the GI tract (epithelial integrity) after irradiation. Type of data set: in vivo, mice. As to conditions: 20 Gy; gavage 0.6 mg/kg FITC-dextran (4 kD); measured four hours later (FIG. 4). The method, then:
FIG. 4 depicts the concentration of FITC-Dextran present in the serum of mice gavaged with 0.6 mg./kg. FITC-Dextran (4 kD) either with or without irradiation and with or without DMOG. Six mice were tested per experimental condition. *p<0.04
Mortality from GI radiotoxicity results from compromised epithelial integrity manifesting as uncontrolled diarrhea or infections from enteric pathogens due to decreased barrier function. To test whether a PHD inhibitor would increase epithelial integrity after radiation insult, a FITC-dextran assay of the GI tract was performed. FITC-dextran cannot cross the GI epithelia, thus its presence in serum is an indication of compromised epithelial integrity. Following irradiation (20 Gy), mice underwent gavage, with the insertion of 0.6 mg/kg of FITC-dextran (4 kD). Four hours later, levels of FITC-dextran were measured in the blood. Treatment with DMOG results in a 3.5-fold decrease in the presence of FITC-dextran in the serum relative to saline control (FIG. 4).

Data set [1] concerns mice receiving 20 Gy of abdominal radiation. Description: Survival following whole-abdominal irradiation (Kaplan-Meier). The format is in vivo. As to conditions: 20 Gy abdominal radiation, DMOG treatment vs none (FIG. 5). An excerpt:
FIG. 5 depicts Kaplan-Meier survival analysis of mice following whole-abdominal irradiation (20 Gy) with and without DMOG treatment. p=0.03 (n=12).

Data set [2] is described as follows: Mortality, GI toxicity and gross intestinal morphology after DMOG injection. To be noted: 8 mg DMOG intraperitoneally, mice. Type of data set: in vivo, male C57Bl/6 mice.
The test system of a further data set is intestinal stem cells. Nature of the data set: Microcolony analysis of colon crypt regeneration after 20 Gy abdominal irradiation. Type of data set: in vivo, mice. Here is the method: FIG. 2 is a graphical depiction of the crypts identified in transverse sections of colon stained with hematoxylin-eosin (H & E) after they were treated with saline or DMOG 16 hours before radiation, 4 hours before radiation, and then every 24 hours after receiving 20 Gy of abdominal radiation. The data represents the combined results from 8 mice receiving either DMOG or saline. Sixteen sections were analyzed per mouse. *p<0.006.
FIG. 3 is a graphical depiction of the crypts identified in transverse sections of colon stained with H & E in mice irradiated before administration of DMOG. Mice were treated with saline or DMOG 2 hours after receiving 20 Gy of abdominal radiation and then once every 24 hours thereafter for 4.5 days. x-axis, left bar mice treated with saline, right bar mice treated with DMOG; y-axis regenerated crypts. *p<0.005.
Radio- and chemotoxicity to the GI tract is the result of damage to the intestinal stem cell located within the crypts of Lieberkühn. The intestinal stem cell, defined by its expression of LGR5 is the most rapidly dividing cell in the GI tract and is therefore susceptible to genotoxic damage. […]

With `COC(=O)CNC(=O)C(=O)OC` [DMOG, N-(methoxyoxoacetyl)-glycine methyl ester], the “HIF2 protein level in colonic crypts (Western blot)” value in the data set on HIF-2 is reported as “elevation”. Further, the “HIF1 protein level in colonic crypts (Western blot)” value in the data set with HIF-1 is given as “elevation”. Moreover, the “decrease in FITC-dextran in the serum relative to saline control” value with GI epithelia worked out at 3.5 fold. For the same compound, in data set [1], the overall survival entry was “dramatically improved”. In data set [2], the “gross morphological changes in the intestine” value is recorded as “nor was there obvious gross morphological changes in the intestine” and the “mortality or GI toxicity” value is reported as “no observed increase in mortality or GI toxicity”. In addition, the “enrichment in regenerative capacity of colon relative to saline alone (regenerated crypts)” value with intestinal stem cells (8 mg DMOG prior to 20 Gy whole-abdomen irradiation, then daily, sacrifice 4.5 days post irradiation (FIG. 2)) is given as 2 fold. Also, the “enrichment in regenerative capacity of colon relative to saline alone (regenerated crypts)” value in the data set on intestinal stem cells (DMOG administered after 20 Gy whole-abdomen irradiation (2 hours after, then every 24 hours), 4.5 days (FIG. 3)) is recorded as 2 fold.
